Experimental data: patent publication US4954437A, “Cell encoding recombinant human erythropoietin” (Integrated Genetics, Inc., priority 1986, dated 1990)
Square brackets hold non-standard residues; d marks the D form. Peptide text beside a SMILES is read from it. * marks the point of attachment. Sta = CC(C)C[C@H](N)[C@@H](O)CC(=O)O; Isovaleryl = CC(C)CC(=O)*

How the values were obtained:
[1] = system: proteases that are active at PH5.0; assay: Protease inhibitors preventing EPO degradation at pH5.0 in 10X concentrated EPO medium, assayed by RIA; type: biochemical
Protocol: (§1) The addition of a dye column to step 1 gives some additional purification and, more importantly, removes contaminating proteases from EPO and consequently allows higher EPO recoveries at the S-Sepharose Fast Flow step. The clarified media was loaded on a Blue Trisacryl-M column (Pharmacia) equilibrated with 10 mM NaPO4 pH6.0, 150 mM NaCl and eluted with a linear salt gradient of 0.15 to 2.5 M NaCl in 10 mM NaPO4 pH6.0 and then flow-dialyzed into 50 mM Na Acetate, pH5.0 containing 15mM NaCl. The recovery of EPO from the Blue Trisacryl column was almost complete and the recovery on the following S-Sepharose Fast Flow column was 86% compared to 60% in example 1. […] This degradation seems to be caused by proteases that are active at PH5.0. The improved yields in step 2 as illustrated in this example can be attributed to the separation of proteases from the EPO protein by the Blue Trisacryl column. (Other commercially available dyes can also be used.)
Protease inhibitors can also be added to the conditioned medium in order to improve EPO yields. Several commercially available protease inhibitors were tested to see if they could prevent EPO degradation at pH5.0. 10X concentrated (Step 1) EPO medium was diluted 1:10 in 50mM Na Acetate, pH5.0 and then incubated at 37° C. with or without protease inhibitors at a concentration of 5 micrograms/ml. […]

[2] = system: Polycythemic mouse; assay: Polycythemic mouse assay (in vivo biological assay); details: for biological activity in in vivo assays: purified rEPO from CES9dog conditioned medium
Protocol: (§2) When the cells were confluent, the supernatants were assayed for EPO expression and the cells were counted and frozen. To test the reproducibility and stability of these cell lines, the 21 highest producing cell lines were thawed and rescreened for 24 hours expression levels on a per cell basis. The five highest producers (3CES and 2CEG transformants) were chosen and expanded into roller bottles to test for growth and production properties. Representative 24 hour culture fluids from cell lines CES9dog and CEG4d in T-75 flasks contained 600U/ml and 800U/ml of rEPO as measured by the ^3 H-thy uptake assay using human urinary EPO as a standard and 490 and 540U/ml when measured by the ^59 Fe incorporation assay into rat bone marrow cells in vitro (Goldwasser et al., 1975, Endocrinology 97:315.). These samples were also active in vivo in the Polycythemic mouse assay as described by Cotes et al., 1961, Nature 191:1065.

[3] = system: rat bone marrow cells; assay: In vitro biological assays (3H-thy uptake assay, 59Fe incorporation into rat bone marrow cells); type: cell-based; details: purified rEPO from CES9dog conditioned medium
Protocol: Foci, representing BPV transformed C127 cells, were detectable 10-14 days after transfection. Supernatants from Plates containing transformants were assayed 17 days after transfection by the ^3 H-thy uptake assay (Krystal 1983, Exp. Hematol., 11/7, 649) and found to contain EPO. 21/2 to 3 weeks after transfection, foci were isolated by the cloning ring method and transferred to T-25 flasks. After the cells reached approximately 20% confluency, the supernatants were tested for EPO production by the ^3 H-thy uptake assay. A total of 76 cell lines (15 CEM, 35 CES and 26 CEG transformants) were transferred into T-75 flasks.
as §2, with “The five highest producers (3CES and 2CEG transformants) were chosen and expanded into roller bottles to test for growth and production properties.” left out, “These samples were also active in vivo in the Polycythemic mouse assay as described by Cotes et al., 1961, Nature 191:1065.” left out

[4] = Degradation of EPO incubated at 37° C. under mildly acidic conditions at pH5.0; type: physicochemical; details: 10X concentrated medium or partially purified step 2 material
Protocol: as §1

Row | Compound | effect on EPO immunoactivity at pH5.0 ([1]; 5 micrograms/ml, 50mM Na Acetate pH5.0, 37° C., over 29 hours, RIA) | IC50 (the concentration at which 50% of the proteases are inhibited) ([1]; 10X concentrated medium, pH5.0, 37° C., 25 hours, RIA (FIG. 9)) | activity in vivo in the Polycythemic mouse assay ([2]; 24 hour culture fluids from cell lines CES9dog and CEG4d) | biological activity in in vivo assays [2] | biological activity in in vivo assays ([2]; listed as EPO) | biological activity in in vitro assays [3] | biological activity in in vitro assays ([3]; listed as EPO) | t1/2 of degradation [4]
1 | CC(C)CC(=O)N[C@H](C(=O)N[C@H](C(=O)N[C@@H](CC(C)C)[C@@H](O)CC(=O)N[C@@H](C)C(=O)N[C@@H](CC(C)C)[C@@H](O)CC(=O)O)C(C)C)C(C)C [Pepstatin, pepstatin] (Isovaleryl-VV[Sta]A[Sta]-OH) | significant stabilizing effect | approximately 0.02 ug/ml |  |  |  |  |  | 
2 | rEPO: recombinant human erythropoietin produced by BPV transformed mouse C127 cells, N- and O-glycosylated |  |  | active | high biological activity | high potency | high biological activity | high potency | approx. 4 h
